{"source": "patent US6294555A", "about": "“1-[(1-Substituted-4-piperidinyl)methyl]-4-piperidine derivative, process for producing the same, medicinal compositions containing the same and intermediates of these compounds” (Dainippon Pharmaceutical Co., Ltd., priority 1998, dated 2001)", "key": {"dopamine D2 receptors": {"tested_on": "dopamine D2 receptors", "settings": "background art; cited from earlier work"}, "[1]": {"settings": "background art; cited from earlier work"}, "5-HT4 receptors": {"tested_on": "5-HT4 receptors", "settings": "background art, J. Pharmacol. Exp. Ther., 1990, 252, 1378; 1991, 257, 781; cited from earlier work"}, "[2]": {"target": "T1, Serotonin 4 (5-HT4) Receptors (Cavia porcellus, UniProt O70528)", "T1 construct": "the striatum was dissected; from tissue; host or cells: guinea pig (Std-Hartley) brain striatum, membrane fractions", "T1 sequence (O70528 whole entry)": "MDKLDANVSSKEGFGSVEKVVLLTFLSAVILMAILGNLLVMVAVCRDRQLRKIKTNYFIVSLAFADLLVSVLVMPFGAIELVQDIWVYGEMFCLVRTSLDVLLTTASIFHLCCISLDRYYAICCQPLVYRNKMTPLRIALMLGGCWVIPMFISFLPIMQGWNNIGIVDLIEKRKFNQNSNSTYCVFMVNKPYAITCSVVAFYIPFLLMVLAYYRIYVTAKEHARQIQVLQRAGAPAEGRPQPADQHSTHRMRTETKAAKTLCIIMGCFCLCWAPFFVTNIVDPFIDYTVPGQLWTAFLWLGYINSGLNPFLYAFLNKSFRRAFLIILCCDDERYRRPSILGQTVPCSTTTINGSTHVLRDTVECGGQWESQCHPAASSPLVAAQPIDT", "experiment": "Binding Assay on Serotonin 4 (5-HT4) Receptors ([3H]-GR113808, striatum membrane fractions)", "parameters": "species or system guinea pig (Std-Hartley)", "settings": "50% inhibition of specific binding of 0.1 nM [3H]-GR113808; 37° C., 30 min; test compounds are fumarates except numbers marked ** (62, 72, 74: free bases)", "description": "Std-Hartley guinea pigs weighing 300-400 g were decapitated, and the brain thereof was immediately taken out, and the striatum was dissected. To the tissue thus obtained was added 15-times volume of Hepes buffer (50 mM, pH7.4, 4° C.), homogenized in a Teflon homogenizer, and centrifuged at 48,000×g at 4° C. for 15 minutes. The pellet was suspended in the same Hepes buffer in a volume of 1 ml per 30 mg of the wet tissues to give receptor membrane fractions.\nThe reaction was terminated by rapid vacuum filtration and washing (3×4 ml) with ice-cold 50 mM Tris-HCl buffer (pH 7.7) through Whatman GF/B filter paper using a Brandel cell harvester. Prior to the filtration, the filter to be used was presoaked in a 0.1% solution of polyethylenimine for one hour. The radioactivity on the filter was determined with by ACS-II scintillation cocktail by a liquid scintillation counter."}, "[3]": {"tested_on": "Mice of Std-ddY strain (evacuation)", "experiment": "Assay on Evacuation in Mice (fecal pellets, oral)", "format": "in vivo, mouse (Std-ddY, male)", "parameters": "key: -: Inactive; +: Moderately stimulated (P<0.05); ++: Markedly stimulated (p<0.01)", "settings": "1 mg/kg oral; fecal pellets at 30, 60 and 120 minutes; Dunnett's test; fumarates except numbers marked ** (25, 86: free bases)", "description": "Male mice of Std-ddY strain weighing 25-30 g were used. Free access to food and water was allowed up to the beginning of the procedure.\nThe mice (each group: five mice) were placed in a mesh bottom cage for fasting, and they were allowed for acclimation to new environment for about one hour prior to the start of the experiment. A test compound, which was previously suspended in the 0.5% tragacanth solution, was administered orally to the mice at a dose of 1 mg/kg. The fecal pellets were counted and collected at 30, 60 and 120 minutes after the treatment of a test compound, and weighed.\nThe statistical judgment of efficacy was carried out between the control group and the treated group, and determined by Dunnett's test."}, "[4]": {"experiment": "Acute Toxicity (intravenous, lethality over 7 days)", "settings": "mouse, in vivo, mice, observed for 7 days, read-out: 50% lethal dose (LD50)", "description": "Male mice of Std-ddY strain weighing 25-30 g were used in a group of 5 animals. A test compound was suspended in physiological saline solution or 1% lactose solution and administered intravenously to the mice. […] The LD50 doses of the compounds of Examples 1, 10, 12, 18, 20, 21, 25 and 26 were all more than 100 mg/kg."}}}
{"smiles": "COc1cc(N)c(Cl)cc1C(=O)N[C@H]1CCN(CCCOc2ccc(F)cc2)C[C@H]1OC", "note": "(relative stereo) [Comp. A, cis-4-amino-5-chloro-N-[1-[3-(4-fluorophenoxy)-propyl]-3-methoxy-4-piperidinyl]-2-methoxybenzamide]", "values": [{"measurement": "inhibitory effects on the central nervous system / dopamine D2 antagonism", "setting": "dopamine D2 receptors", "value": "inhibitory effects on the central nervous system based on the antagonistic activity against dopamine D2 receptors"}, {"measurement": "side effects on the heart", "setting": "[1]", "value": "side effects on the heart"}, {"measurement": "gastrointestinal motility", "setting": "5-HT4 receptors", "value": "enhance the gastrointestinal motility by stimulating 5-HT4 receptors"}]}
{"smiles": "COc1cc(N)c(Cl)cc1C(=O)NC1CCN(CC2CCN(C(=O)N(C)C)CC2)CC1", "note": "[Example 1, 4-amino-5-chloro-N-[1-(1-dimethylcarbamoyl-4-piperidinylmethyl)-4-piperidinyl]-2-methoxybenzamide]", "values": [{"measurement": "IC50", "setting": "[2]", "value": 11.9, "unit": "nM"}, {"measurement": "Effect (evacuation)", "setting": "[3]", "value": "++"}, {"measurement": "LD50 at 168 h", "setting": "[4]", "value": "> 100", "unit": "mg/kg"}]}
{"smiles": "COc1cc(N)c(Cl)cc1C(=O)NC1CCN(CC2CCN(C(=S)N(C)C)CC2)CC1", "note": "[Example 10, 4-amino-5-chloro-N-[1-(1-dimethylthiocarbamoyl-4-piperidinylmethyl)-4-piperidinyl]-2-methoxybenzamide]", "values": [{"measurement": "IC50", "setting": "[2]", "value": 8, "unit": "nM"}, {"measurement": "Effect (evacuation)", "setting": "[3]", "value": "++"}, {"measurement": "LD50 at 168 h", "setting": "[4]", "value": "> 100", "unit": "mg/kg"}]}
{"smiles": "COc1cc(N)c(Cl)cc1C(=O)NC1CCN(CC2CCN(C(=O)N3CCCC3)CC2)CC1", "note": "[Example 12, 4-amino-5-chloro-2-methoxy-N-[1-[1-(1-pyrrolidinecarbonyl)-4-piperidinylmethyl]-4-piperidinyl]benzamide]", "values": [{"measurement": "IC50", "setting": "[2]", "value": 8.7, "unit": "nM"}, {"measurement": "Effect (evacuation)", "setting": "[3]", "value": "++"}, {"measurement": "LD50 at 168 h", "setting": "[4]", "value": "> 100", "unit": "mg/kg"}]}
{"smiles": "CN(C)C(=O)N1CCC(CN2CCC(NC(=O)c3cc(Cl)c(N)c4c3OCC4)CC2)CC1", "note": "[Example 18, 4-amino-5-chloro-N-[1-(1-dimethylcarbamoyl-4-piperidinylmethyl)-4-piperidinyl]-2,3-dihydrobenzo[b]furan-7-carboxamide]", "values": [{"measurement": "IC50", "setting": "[2]", "value": 3.3, "unit": "nM"}, {"measurement": "Effect (evacuation)", "setting": "[3]", "value": "++"}, {"measurement": "LD50 at 168 h", "setting": "[4]", "value": "> 100", "unit": "mg/kg"}]}
{"smiles": "CN(C)C(=S)N1CCC(CN2CCC(NC(=O)c3cc(Cl)c(N)c4c3OCC4)CC2)CC1", "note": "[Example 20, 4-amino-5-chloro-N-[1-(1-dimethylthiocarbamoyl-4-piperidinylmethyl)-4-piperidinyl]-2,3-dihydrobenzo[b]furan-7-carboxamide]", "values": [{"measurement": "IC50", "setting": "[2]", "value": 1.3, "unit": "nM"}, {"measurement": "Effect (evacuation)", "setting": "[3]", "value": "++"}, {"measurement": "LD50 at 168 h", "setting": "[4]", "value": "> 100", "unit": "mg/kg"}]}
{"smiles": "Nc1c(Cl)cc(C(=O)NC2CCN(CC3CCN(C(=O)N4CCCC4)CC3)CC2)c2c1CCO2", "note": "[Example 21, 4-amino-5-chloro-N-[1-[1-(1-pyrrolidinecarbonyl)-4-piperidinylmethyl)-4-piperidinyl]-2,3-dihydrobenzo[b]furan-7-carboxamide]", "values": [{"measurement": "IC50", "setting": "[2]", "value": 2.4, "unit": "nM"}, {"measurement": "Effect (evacuation)", "setting": "[3]", "value": "++"}, {"measurement": "LD50 at 168 h", "setting": "[4]", "value": "> 100", "unit": "mg/kg"}]}
{"smiles": "CCOc1cc(N)c(Cl)cc1C(=O)NC1CCN(CC2CCN(C(=O)N(C)C)CC2)CC1", "note": "[Example 25, 4-amino-5-chloro-N-[1-(1-dimethylcarbamoyl-4-piperidinylmethyl)-4-piperidinyl]-2-ethoxybenzamide]", "values": [{"measurement": "IC50", "setting": "[2]", "value": 4.2, "unit": "nM"}, {"measurement": "Effect (evacuation)", "setting": "[3]", "value": "++"}, {"measurement": "LD50 at 168 h", "setting": "[4]", "value": "> 100", "unit": "mg/kg"}]}
{"smiles": "COc1cc(N)c(Br)cc1C(=O)NC1CCN(CC2CCN(C(=O)N(C)C)CC2)CC1", "note": "[Example 26, 4-amino-5-bromo-N-[1-(1-dimethylcarbamoyl-4-piperidinylmethyl)-4-piperidinyl]-2-methoxybenzamide]", "values": [{"measurement": "IC50", "setting": "[2]", "value": 11.5, "unit": "nM"}, {"measurement": "Effect (evacuation)", "setting": "[3]", "value": "+"}, {"measurement": "LD50 at 168 h", "setting": "[4]", "value": "> 100", "unit": "mg/kg"}]}
{"smiles": "CCOc1cc(N)c(Cl)cc1C(=O)NC1CCN(CC2CCN(C(=O)CCOC)CC2)CC1", "note": "[Example 81, 4-amino-5-chloro-2-ethoxy-N-[1-[1-(3-methoxypropionyl)-4-piperidinylmethyl]-4-piperidinyl]benzamide]", "values": [{"measurement": "IC50", "setting": "[2]", "value": 7.7, "unit": "nM"}, {"measurement": "Effect (evacuation)", "setting": "[3]", "value": "++"}]}
{"smiles": "CCC(=O)CN1CCC(CN2CCC(NC(=O)c3cc(Cl)c(N)cc3OC)CC2)CC1", "note": "[Example 86]", "values": [{"measurement": "IC50", "setting": "[2]", "value": 8.3, "unit": "nM"}, {"measurement": "Effect (evacuation)", "setting": "[3]", "value": "++"}]}
{"smiles": "CCN(CC)CCNC(=O)c1cc(Cl)c(N)cc1OC", "note": "[metoclopramide]", "values": [{"measurement": "gastrointestinal motility", "setting": "5-HT4 receptors", "value": "enhance the gastrointestinal motility by stimulating 5-HT4 receptors"}]}
